≈ marks a conversion by molar mass, not a printed value. Where “and” joins values, the source holds several entries; their conditions need not be identical. Identical values can stand only once.
System: SW620
Test: Inhibition of cancer cell growth as measured by cell number, SW620;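 note: SW620 was included as a cell line with little or no EGFR or HER2/neu expression, in contrast to receptor-overexpressing lines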
Format: cell-based, human
Settings: Homo sapiens, SW-620, 48 h, read-out: IC50 SW620, cell number, Sulforhodamine B, 48 hours exposure; Table 8
From the text: (§1) The cell lines were chosen since they overexpressed epidermal growth factor receptor (EGFR) (i.e. A431) or HER2/neu (SKBR3), or had little to no expression of the these receptors (SW620, LOX, MCF7).

SMILES | IC50
C=C(CN1CCOCC1)C(=O)Nc1ccc2ncc(C#N)c(Nc3ccc(F)c(Cl)c3)c2c1 [Example 148, N-{4-[(3-chloro-4-fluorophenyl)amino]-3-cyano-6-quinolinyl}-2-morpholin-4-ylmethyl-2-propenamide] | 0.26 µg/mL (≈ 0.558 µM)

Same assay, conditions: cell number, Sulforhodamine B, 48 hours exposure; Table 8

SMILES | IC50 SW620
CCOc1cc2ncc(C#N)c(NCc3ccccc3)c2cc1OCC [Example 62, 4-(3-Phenylmethylamino)-6,7-diethoxy-3-quinolinecarbonitrile] | 0.3 µg/mL (≈ 0.864 µM)
CCOc1cc2ncc(C#N)c(NCc3ccc(Cl)c(Cl)c3)c2cc1OCC [Example 64, 4-(3.4-Dichlorophenylmethylamino)-6,7-diethoxy-3-quinolinecarbonitrile] | 1.603 µg/mL (≈ 3.85 µM)

System: SKBR3
Test: Inhibition of cancer cell growth as measured by cell number, SKBR3;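 note: SK-BR-3 cells were selected as a line overexpressing HER2/neu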
Format: cell-based, human
Settings: Homo sapiens, SK-BR-3, 48 h, read-out: IC50 SKBR3, cell number, Sulforhodamine B, 48 hours exposure; Table 8
From the text: as §1

SMILES | IC50
C=C(CN1CCOCC1)C(=O)Nc1ccc2ncc(C#N)c(Nc3ccc(F)c(Cl)c3)c2c1 [Example 148, N-{4-[(3-chloro-4-fluorophenyl)amino]-3-cyano-6-quinolinyl}-2-morpholin-4-ylmethyl-2-propenamide] | 0.043 µg/mL (≈ 0.0923 µM)

Same assay, conditions: cell number, Sulforhodamine B, 48 hours exposure; Table 8

SMILES | IC50 SKBR3
CCOc1cc2ncc(C#N)c(NCc3ccccc3)c2cc1OCC [Example 62, 4-(3-Phenylmethylamino)-6,7-diethoxy-3-quinolinecarbonitrile] | 0.3 µg/mL (≈ 0.864 µM)
CCOc1cc2ncc(C#N)c(NCc3ccc(Cl)c(Cl)c3)c2cc1OCC [Example 64, 4-(3.4-Dichlorophenylmethylamino)-6,7-diethoxy-3-quinolinecarbonitrile] | 1.965 µg/mL (≈ 4.72 µM)

Biological target: recombinant human MEK 1 (MAPKK) and recombinant human ERK2 (MAPK)
Test: Mitogen Activated Protein Kinase (MAPK) assay, two component coupled MEK 1 / ERK2;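 note: MEK 1-activated ERK2 phosphorylates MBP or Myc peptide with 33P-ATP, filter capture and scintillation counting, inhibitor preincubated with ERK2 30 min at 0 °C, inhibition relative to uninhibited control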
Format: biochemical
Settings: separate entries for the same compound = evaluated more than one time
Method: To evaluate inhibitors of the MAP (mitogen activated protein) kinase a two component coupled standard pharmacological test procedure, which measures phosphorylation of a serine/threonine residue in an appropriate sequence in the substrate in the presence and absence of a putative inhibitor, was used. Recombinant human MEK 1 (MAPKK) was first used to activate recombinant human ERK2 (MAPK) and the activated MAPK (ERK) was incubated with substrate (MBP peptide or MYC peptide) in the presence of ATP, Mg^+2 and radiolabeled ^33P ATP. The phosphorylated peptide was captured on a P 81 phosphocellulose filter (paper filter or embedded in microtiter plate) washed and counted by scintillation methods.
The peptide substrates used in the assay are MBP, peptide substrate ([sequence]), or synthetic Myc substrate, ([sequence]•5 TFA. The recombinant enzymes used were prepared as GST fusion proteins of human ERK 2 and human MEK 1. Inhibitor samples were prepared as 10X stocks in 10% DMSO and an appropriate aliquot was used to deliver either 10 ug/ml for a single point screening dose or 100, 10, 1, and 0.1 uM final concentration for a dose response curve. Final DMSO concentrations were less than or equal to 1%.
The reaction was run as follows in 50 mM Tris kinase buffer, pH 7.4 in a reaction volume of 50 ul. The appropriate volume of kinase buffer and inhibitor sample was added to the tube. Appropriate dilution of enzyme was delivered to give 2-5 ug recombinant MAPK (Erk ) per tube. The inhibitor was incubated with MAPK (Erk) for 30 min at 0 deg. […] Recombinant Mek (MAPKK) ( 0.5-2.5 ug) or fully activated Mek (0.05-0.1 units) was added to activate the Erk and incubated for 30 min at 30° C. […] Samples were incubated at 30°C for 30 minutes and the reaction was stopped by adding 25 µl of ice cold 10 %TCA .After samples were chilled on ice for 30 min, 20 µl of sample was transferred onto P 81 phosphocellulose filter paper or appropriate MTP with embedded P 81 filter. Filter papers or MTP were washed 2 times with a large volume of 1% acetic acid, then 2 times with water. The filters or MTP were briefly air dried before addition of scintillant and samples were counted in the appropriate scintillation counter set up for reading ^33P isotope.
The raw data was captured as cpm. Sample replicates were averaged and corrected for background count. Mean cpm data was tabulated by group and % inhibition by a test compound was calculated as (corrected cpm control- corrected. cpm sample/control) X 100 = % inhibition.

SMILES | IC50
CCOc1cc2ncc(C#N)c(NCc3ccc(Cl)c(Cl)c3)c2cc1OCC [Example 64, 4-(3.4-Dichlorophenylmethylamino)-6,7-diethoxy-3-quinolinecarbonitrile] | 3 µM
COc1cc2ncc(C#N)c(Nc3ccc(CCO)cc3)c2cc1OC [Example 299, 4-[4-(2-Hydroxy-ethyl)-phenylamino]-6,7-dimethoxy-quinoline-3-carbonitrile] | > 100 µM
COc1cc2ncc(C#N)c(Nc3ccc(O)cc3O)c2cc1OC [Example 300, 4-(2,4-Dihydroxy-phenylamino)-6,7-dimethoxy-quinoline-3-carbonitrile] | 20 µM
COc1cc2ncc(C#N)c(Nc3ccccc3CCO)c2cc1OC [Example 301, 4-[2-(2-Hydroxy-ethyl)-phenylamino]-6,7-dimethoxy-quinoline-3-carbonitrile] | 12 µM
CCCOc1cc2ncc(C#N)c(Nc3cccc(Br)c3)c2cc1OCCC [Example 303, 4-(3-Bromophenylamino)-6.7-di-n-propoxy-3-quinolinecarbonitrile] | > 100 µM
CCCCOc1cc2ncc(C#N)c(Nc3cccc(Br)c3)c2cc1OCCCC [Example 305, 4-(3-Bromophenylamino)-6,7-di-n-butoxy-3-quinolinecarbonitrile] | > 100 µM
COc1cc2ncc(C#N)c(Nc3cc(O)c(Cl)cc3F)c2cc1OCCCN1CCOCC1 [Example 323, 4-(4-Chloro-2-fluoro-5-hydroxy-phenylamino)-7-methoxy-6-(3-morpholin-4-yl)-propoxyl-quinoline-3-carbonitrile] | 15 µM
COCc1cc2ncc(C#N)c(Nc3cccc(Br)c3)c2cc1COC [Example 325, 4-(3-Bromophenylamino)-6,7-di-methoxymethyl-3-quinolinecarbonitrile] | > 100 µM
COc1cc2ncc(C#N)c(Nc3cccc(CO)c3C)c2cc1OC [Example 333, 4-(3-Hydroxymethyl-2-methylphenylamino)-6,7-dimethoxyquinoline-3-carbonitrile] | 10 µM
COc1cc2ncc(C#N)c(Nc3cccc(O)c3)c2cc1OC [Example 339, 4-(3-Hydroxy-phenylamino)-6,7-dimethoxy-quinoline-3-carbonitrile] | 65 µM and 50 µM
COc1cc2ncc(C#N)c(Nc3ccc(C)cc3)c2cc1OC [Example 340, 4-(4-methyl-phenylamino)-6,7-dimethoxy-quinoline-3-carbonitrile] | > 100 µM
COc1cc([N+](=O)[O-])cc2c(Nc3ccc(C)c(O)c3)c(C#N)cnc12 [Example 341, 4-(3-Hydroxy-4-methyl-phenylamino)-8-methoxy-6-nitro-quinoline-3-carbonitrile] | > 100 µM
COc1cc([N+](=O)[O-])cc2c(Nc3ccc(Cl)cc3F)c(C#N)cnc12 [Example 342, 4-(4-chloro-2-fluoro-phenylamino)-8-methoxy-6-nitro-quinoline-3-carbonitrile] | > 100 µM
COc1ccc(Nc2c(C#N)cnc3c(OC)cc([N+](=O)[O-])cc23)cc1O [Example 343, 4-(3-hydroxy-4-methoxy-phenylamino)-8-methoxy-6-nitro-quinoline-3-carbonitrile] | 60 µM
COc1cc(N)cc2c(Nc3ccc(C)c(O)c3)c(C#N)cnc12 [Example 344, 6-Amino-4-(3-hydroxy-4-methyl-phenylamino)-8-methoxy-quinoline-3-carbonitrile] | > 100 µM
COc1ccc(Nc2c(C#N)cnc3c(OC)cc(N)cc23)cc1O [Example 345, 6-Amino-4-(3-hydroxy-4-methoxy-phenylamino)-8-methoxy-quinoline-3-carbonitrile] | > 100 µM
CC#CC(=O)Nc1ccc2ncc(C#N)c(Nc3cccc(I)c3)c2c1 [Example 348, N-{3-Cyano-4-[(3-iodophenyl)amino]-6-quinolinyl}-2-butynamide] | > 100 µM and 80 µM
C=CC(=O)Nc1ccc2ncc(C#N)c(Nc3cccc(C)c3)c2c1 [Example 349, N-{3-Cyano-4-[(3-methylphenyl)amino]-6-quinolinyl]-2-propenamide] | > 100 µM
C=CC(=O)Nc1ccc2ncc(C#N)c(Nc3ccc(Sc4ccccc4)c(Cl)c3)c2c1 [Example 351, N-{4-[(3-Chloro-4-thiophenoxyphenyl)amino]-3-cyano-6-quinoliny}-2-propenamide] | 32 µM
CC#CC(=O)Nc1ccc2ncc(C#N)c(Nc3cccc(Cl)c3)c2c1 [Example 353, N-{4-[(3-Chlorophenyl)amino]-3-cyano-6-quinolinyl}-2-butynamide] | 40 µM
CC#CC(=O)Nc1ccc2ncc(C#N)c(Nc3cccc(C(C)C)c3)c2c1 [Example 354, N-{3-Cyano-4-[(3-isopropylphenyl)amino]-6-quinolinyl}-2-butynamide] | > 100 µM

SMILES | IC50
C=CC(=O)Nc1ccc2ncc(C#N)c(Nc3cccc(C(C)C)c3)c2c1 [Example 355, N-{3-Cyano-4-[(3-isopropylphenyl)amino]-6-quinolinyl}-2-propenamide] | 45 µM
CC(C)c1cccc(Nc2c(C#N)cnc3ccc(N)cc23)c1 [Example 356, 6-Amino-4-[(3-isopropylphenyl)amino]-3-quinolinecarbonitrile] | > 100 µM
CC(C)c1cccc(Nc2c(C#N)cnc3ccc([N+](=O)[O-])cc23)c1 [Example 357, 4-[(3-Isopropylphenyl)amino]-6-nitro-3-quinolinecarbonitrile] | > 100 µM
COc1cc2ncc(C#N)c(Nc3cccc(N=[N+]=[N-])c3)c2cc1OC [Example 359, 4-(3-Azido-phenylamino)-6,7-dimethoxy-quinoline-3-carbonitrile] | > 100 µM
N#Cc1cnc2ccc([N+](=O)[O-])cc2c1Nc1ccc(Cl)c(Cl)c1 [Example 362, 4-[(3.4-dichlorophenyl)amino]-6-nitro-3-quinolinecarbonitrile] | > 100 µM
CSc1cccc(Nc2c(C#N)cnc3ccc([N+](=O)[O-])cc23)c1 [Example 364, 4-[(3-Methylsulfanylphenyl)amino]-6-nitro-3-quinolinecarbonitrile] | > 100 µM
N#Cc1cnc2ccc([N+](=O)[O-])cc2c1Nc1cccc(OC(F)(F)F)c1 [Example 365, 4-[(3-Trifluoromethoxyphenyl)amino]-6-nitro-3-quinolinecarbonitrile] | > 100 µM
COc1cc2ncc(C#N)c(Nc3cccc(N(C)C)c3)c2cc1OC [Example 366, 4-(3-Dimethylamino-phenylamino)-6,7-dimethoxy-quinoline-3-carbonitrile] | 4 µM
COc1cc2ncc(C#N)c(Nc3cccc(O)c3C)c2cc1OC [Example 374, 4-(3-Hydroxy-2-methyl-phenylamino)-6,7-dimethoxy-quinoline-3-carbonitrile] | < 1 µM and 2 µM
N#Cc1cnc2ccc([N+](=O)[O-])cc2c1Nc1ccc(Br)c(Br)c1 [Example 377, 4-(3,4-Dibromophenylamino)-6-nitroquinoline-3-carbonitrile] | > 100 µM
N#Cc1cnc2ccc(N)cc2c1Nc1ccc(Br)c(Br)c1 [Example 379, 6-Amino-4-(3,4-dibromophenylamino)quinoline-3-carbonitrile] | 40 µM
CCC(=O)Nc1ccc2ncc(C#N)c(Nc3cccc(Br)c3)c2c1 [Example 381, N-[4-(3-Bromophenylamino)-3-cyanoquinolin-6-yl]propionamide] | > 100 µM
C/C=C/C(=O)Nc1ccc2ncc(C#N)c(Nc3cccc(Br)c3)c2c1 [Example 382, (E)-But-2-enoic Acid [4-(3-Bromophenylamino)-3-cyanoquinolin-6-yl]amide] | > 100 µM
N#Cc1cnc2ccc([N+](=O)[O-])cc2c1Nc1cccc(F)c1 [Example 384, 4-(3-Fluorophenylamino)-6-nitroquinoline-3-carbonitrile] | > 100 µM
N#Cc1cnc2ccc(N)cc2c1Nc1cccc(F)c1 [Example 385, 6-Amino-4-(3-fluorophenylamino)quinoline-3-carbonitrile] | 90 µM
CN(C)c1cccc(Nc2c(C#N)cnc3ccc([N+](=O)[O-])cc23)c1 [Example 386, 4-(3-Dimethylaminophenylamino)-6-nitroquinoline-3-carbonitrile] | > 100 µM
CN(C)c1ccc(Nc2c(C#N)cnc3ccc([N+](=O)[O-])cc23)cc1 [Example 387, 4-(4-Dimethylaminophenylamino)-6-nitroquinoline-3-carbonitrile] | > 100 µM
CN(C)c1cccc(Nc2c(C#N)cnc3ccc(N)cc23)c1 [Example 388, 6-Amino-4-(3-dimethylaminophenylamino)quinoline-3-carbonitrile] | 25 µM and 50 µM
CN(C)c1ccc(Nc2c(C#N)cnc3ccc(N)cc23)cc1 [Example 389, 6-Amino-4-(4-dimethylaminophenylamino)quinoline-3-carbonitrile] | > 100 µM
CC#CC(=O)Nc1ccc2ncc(C#N)c(Nc3cccc(F)c3)c2c1 [Example 390, But-2-ynoic Acid [4-(3-Fluorophenylamino)-3-cyanoquinolin-6-yl]amide] | > 100 µM
CC#CC(=O)Nc1ccc2ncc(C#N)c(Nc3ccc(N(C)C)cc3)c2c1 [Example 394, But-2-ynoic Acid [3-Cyano-4-(4-dimethylaminophenylamino)quinolin-6-yl]amide] | > 100 µM
